{"source": "paper PMC7044277", "about": "(Nature Communications, 2020)", "type_in_all_cases": "cell-based", "key": {"[1]": {"target": "320 non-olfactory GPCRs (Homo sapiens, UniProt P35372)", "sequence (P35372 whole entry)": "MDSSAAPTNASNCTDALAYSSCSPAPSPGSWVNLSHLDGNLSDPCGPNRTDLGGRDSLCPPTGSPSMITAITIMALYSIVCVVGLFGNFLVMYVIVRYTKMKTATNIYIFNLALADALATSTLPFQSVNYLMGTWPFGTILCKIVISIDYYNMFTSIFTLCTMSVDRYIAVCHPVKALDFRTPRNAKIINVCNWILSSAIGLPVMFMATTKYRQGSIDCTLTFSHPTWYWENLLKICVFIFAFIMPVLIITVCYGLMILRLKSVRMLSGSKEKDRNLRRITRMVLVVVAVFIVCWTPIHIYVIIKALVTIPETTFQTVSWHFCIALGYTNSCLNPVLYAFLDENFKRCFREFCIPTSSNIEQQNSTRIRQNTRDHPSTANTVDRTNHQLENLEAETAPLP", "settings": "receptor OPRM1; replicate values, Fig_4g"}, "[2]": {"target": "T1, 320 non-olfactory GPCRs (Homo sapiens, UniProt Q92847)", "T1 construct": "expressed in transfected cells; host or cells: HTLA cells", "T1 sequence (Q92847 whole entry)": "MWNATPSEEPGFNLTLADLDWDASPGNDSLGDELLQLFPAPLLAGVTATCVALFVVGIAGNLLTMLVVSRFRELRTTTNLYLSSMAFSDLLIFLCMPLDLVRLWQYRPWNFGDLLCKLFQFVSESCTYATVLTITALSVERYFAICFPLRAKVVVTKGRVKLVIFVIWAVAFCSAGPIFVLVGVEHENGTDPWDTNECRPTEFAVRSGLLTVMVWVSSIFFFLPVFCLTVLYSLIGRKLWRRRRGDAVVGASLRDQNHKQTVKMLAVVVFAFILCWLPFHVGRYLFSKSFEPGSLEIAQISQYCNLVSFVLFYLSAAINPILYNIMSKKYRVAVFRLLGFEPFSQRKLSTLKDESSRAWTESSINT"}, "[3]": {"target": "T2, 320 non-olfactory GPCRs (Homo sapiens, UniProt Q96AM1)", "T2 construct": "expressed in transfected cells; host or cells: HTLA cells", "T2 sequence (Q96AM1 whole entry)": "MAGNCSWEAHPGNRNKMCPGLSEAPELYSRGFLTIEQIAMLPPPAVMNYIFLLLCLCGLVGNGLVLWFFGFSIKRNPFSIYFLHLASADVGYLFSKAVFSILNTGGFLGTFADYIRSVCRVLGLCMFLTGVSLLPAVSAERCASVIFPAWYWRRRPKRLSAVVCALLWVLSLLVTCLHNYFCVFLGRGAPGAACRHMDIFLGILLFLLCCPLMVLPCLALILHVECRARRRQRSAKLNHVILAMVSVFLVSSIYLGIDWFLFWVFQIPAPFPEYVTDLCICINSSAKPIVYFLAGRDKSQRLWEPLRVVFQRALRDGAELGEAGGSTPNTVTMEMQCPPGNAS", "settings": "receptor MRGPRF; replicate values, Fig_4g"}, "[4]": {"target": "T3, 320 non-olfactory GPCRs (Homo sapiens, UniProt Q99527)", "T3 construct": "expressed in transfected cells; host or cells: HTLA cells", "T3 sequence (Q99527 whole entry)": "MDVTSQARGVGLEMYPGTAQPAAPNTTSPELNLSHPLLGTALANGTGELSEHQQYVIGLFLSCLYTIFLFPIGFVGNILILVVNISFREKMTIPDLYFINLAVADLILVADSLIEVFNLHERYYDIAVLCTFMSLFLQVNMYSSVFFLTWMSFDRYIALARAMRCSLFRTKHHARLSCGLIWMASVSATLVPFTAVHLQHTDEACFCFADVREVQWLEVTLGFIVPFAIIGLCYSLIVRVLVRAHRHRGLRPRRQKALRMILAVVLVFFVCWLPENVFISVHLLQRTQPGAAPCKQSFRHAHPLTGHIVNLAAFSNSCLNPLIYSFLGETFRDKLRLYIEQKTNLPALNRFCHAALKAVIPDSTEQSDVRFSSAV"}}, "note": "Where “and” joins values, the source holds several entries; their conditions need not be identical. Equal values may be shown once.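 Throughout, for Fold of Basal: compound tested at 1 µM final concentration.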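 Throughout, for GPCRome agonism screen response: fold over basal response of each receptor without drug.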"}
{"smiles": "CCOc1cccc2cc(C(C)NCC3(O)CCCCC3)oc12", "note": "(stereo not shown) [O4LE6]", "values": [{"measurement": "GPCRome agonism screen response", "setting": "[1]", "result": "0.5449 and 0.6973 and 1.0539 and 0.5973"}, {"measurement": "Fold of Basal", "setting": "[2]", "result": "0.8362 and 0.6901 and 0.8172 and 0.8114"}, {"measurement": "GPCRome agonism screen response", "setting": "[3]", "result": "0.9496 and 0.9687 and 0.9252 and 0.5763"}, {"measurement": "Fold of Basal", "setting": "[4]", "result": "0.9251 and 0.8387 and 0.6915 and 0.7823"}]}
